# Laboratory results: patent publication US10806793B2, “Mucosal delivery of therapeutic molecules, proteins, or particles coupled to ceramide lipids” (Children's Medical Center Corporation, priority 2008, dated 2020)
# How the values were obtained:
# [1] = system: C12-GM1 transport to the TGN; assay: Brefeldin effect on C12-GM1 transport; assay type: cell-based
# [2] = Orskov et al., 1993; cited from earlier work
Molecule,effect on C12-GM1 transport to the TGN [1],potency in vivo [2]
C[C@H]1CCC/C=C/[C@@H]2C[C@H](O)C[C@H]2[C@H](O)/C=C/C(=O)O1 [Brefeldin-1],inhibits C12-GM1 transport to the TGN,–
GLP1(7-36)amide: secreted form of GLP1 in which the carboxylic acid of Arg at position 36 has been amidated,–,equally potent
GLP1(7-37): secreted form of GLP1 that contains a C-terminal Gly residue,–,equally potent
